Source: PMC7509852 (Biochemistry, 2020)

Tests used:
Cj1427 [1] = target: T1, Cj1427 (Campylobacter jejuni, UniProt Q0P8I7); assay: UV-vis spectrum of bound cofactor; assay type: biochemical; settings: NAD+-bound enzyme; 2.0 mM substrate; 50 mM HEPES/KCl pH 7.4, 30 °C
Cj1427 [2] = target: T1, Cj1427; assay: UV-vis loss of […] nm band; assay type: biochemical; settings: NADH-bound enzyme; 2.0 mM substrate; 50 mM HEPES/KCl pH 7.4, 30 °C

T1 sequence (Q0P8I7 whole entry): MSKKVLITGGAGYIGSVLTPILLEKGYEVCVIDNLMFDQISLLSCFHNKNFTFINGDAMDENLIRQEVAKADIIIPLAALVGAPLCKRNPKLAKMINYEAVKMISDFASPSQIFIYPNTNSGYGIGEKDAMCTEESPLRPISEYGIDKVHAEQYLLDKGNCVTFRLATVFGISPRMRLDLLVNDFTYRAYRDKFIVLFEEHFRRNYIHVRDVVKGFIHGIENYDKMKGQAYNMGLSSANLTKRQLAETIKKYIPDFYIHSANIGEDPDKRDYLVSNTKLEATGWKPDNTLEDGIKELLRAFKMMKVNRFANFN

SMILES | UV-vis spectrum of bound cofactor (Cj1427 [1]) | UV-vis loss of 350 nm band; ion exchange chromatography (Cj1427 [2])
O=C(O)CC[C@H](O)C(=O)O [L-2-hydroxyglutarate] | Cj1427 with bound NAD^+ catalyzes the oxidation of L-2-hydroxyglutarate to α-ketoglutarate and NADH | 
O=C(O)CCC(=O)C(=O)O [α-ketoglutarate] |  | initially bound NADH was converted to NAD^+ in the presence of α-ketoglutarate
